# Data as given in publication PMC6629785, “Synthesis and Pharmacological Evaluation of a Novel Peptide Based on Anemonia sulcata BDS-I Toxin as a New KV3.4 Inhibitor Exerting a Neuroprotective Effect Against Amyloid-β Peptide” (Frontiers in Chemistry, 2019).
# Ends that are not written are not given here.
# Tested on: NGF-differentiated PC-12 cells
# Assay: Assessment of nuclear morphology with Hoechst-33258 after Aβ1−42 exposure
# Format: cell-based, Rat
# Settings: peptide 100 nM pre-treatment; Aβ1−42 oligomers 5 μM, 24 h; Hoechst staining; 3 separate experiments, ~1,000 cells per group
# Procedure: Rat pheochromocytoma cells (PC-12 cells) were grown as previously described (Pannaccione et al., [2005], [2007]). For all the experiments, cells were seeded at low density on glass cover-slips coated with poly-L-lysine (50 μg/ml). Differentiation of PC-12 cells was achieved by treatment with neuronal growth factor (NGF) 2.5 S (50 ng/ml) for 7–9 days (Greene and Tischler, [1976]). For electrophysiological experiments, cells were seeded on glass cover-slips and used after 7–9 days of NGF. […]
# Nuclear morphology was evaluated by using the fluorescent DNA-binding dye Hoechst-33258 already described (Pannaccione et al., [2007]).
# The peptide used in our study was synthesized by INBIOS (Pozzuoli, Naples, Italy) using the Aβ1−42 sequence of human APP [UniProtKB-P05067 (A4_HUMAN)]. The purity of the peptide was assessed by high-performance liquid chromatography (>95% pure) and the amino acid composition was verified by mass spectrometry. […] The pre-aggregated preparation of Aβ oligomers was analyzed in SDS-PAGE using the rabbit monoclonal anti-Aβ on precast gels 4-20%. […]
# Figure 7 Effect of BDS-I[1-8] on Aβ1−42-induced abnormal nuclear morphology and caspase-3 activation in NGF-differentiated PC-12 cells. […] Values are expressed as mean±SEM of 3 independent experimental sessions. […]
row,Substance,effect on abnormal nuclear morphology induced by Aβ1−42 exposure
1,blood depressing substance-I [BDS-I],able to significantly prevent
2,AAPAFASG [BDS-I[1-8]],able to significantly prevent
